In patent US9475842B2, “Hexadepsipeptide analogues as anticancer compounds” (PIRAMAL ENTERPRISES LIMITED, priority 2012, dated 2016):

Columns and labels:
Test in all cases: Protein expression by high content screening (Cellomics)
Format in all cases: cell-based, human
[1] = tested on: cleaved caspase 3 in HeLa cells; conditions: for Fold activation with respect to control cells, Cleaved Caspase 3: HeLa cells, after 3 hours
Protocol: (§1) Protein expressions of cyclin D, nuclear factor-kappa B (p65) [NFkB (p65)], ribosomal protein S6 (pS6), tumor protein 53 (p53), protein c-jun N-terminal kinase (pJNK), cleaved caspase 9, cleaved caspase 3 and cleaved poly(ADP-ribose) polymerase (PARP) was carried out in HeLa cells [referred to in step 1 of example 16] by Cellomics high content imaging. These primary antibodies were purchased from Santacruz Biotechnology, USA. Briefly 1×10^4 cells were seeded in 96 well tissue culture grade black plate with transparent bottom (Nunc, USA), and allowed to adhere for 24 h, and then replaced with fresh media, and cells were treated with 0.01 μM, 0.003 μM and 0.0003 μM concentrations of compound of Formula (1) [referred to in step 2 of example 16] and incubated for 1 h and 3 h respectively. After respective time point, cells were fixed with 3.7% formaldehyde (Sigma St. Louis, Mo.) for 10 minutes at RT, followed by permeabilization with 0.15% Triton X-100 (Sigma St. Louis, Mo.) for 10 minutes. Then the cells were blocked with 5% Bovine Serum Albumin for 2 hours. After blocking step, specific primary antibodies were added for 1 h, and primary antibodies of different protein were localized by secondary antibody labeled with Dylight548 (red) (Thermofisher, USA). Following secondary incubation, the nucleus was stained with Hoechst 3342 (blue) (Sigma, USA). Immunofluorescence was determined by scanning the plates on Cellomics Array Scan® VTI HCS Reader (Thermo-Fisher Scientific Inc., Waltham, Mass.). All the data points were analyzed using the Compartmental Analysis bio-algorithm of Cellomics and quantitative data were expressed as % activation in comparison to the untreated cells. 1000 cells were counted for each replicate well and the results were presented as an average±S.E.

[2] = tested on: cleaved caspase 9 in HeLa cells; conditions: for Fold activation with respect to control cells, Cleaved Caspase 9: HeLa cells, after 3 hours
Protocol: as §1

[3] = tested on: cleaved poly(ADP-ribose) polymerase (PARP) in HeLa cells; conditions: for Fold activation with respect to control cells, Cleaved PARP: HeLa cells, after 3 hours
Protocol: as §1

cyclin D in HeLa cells = conditions: for Fold down regulation with respect to control cells, Cyclin D: HeLa cells, after 3 hours
Protocol: as §1

[4] = tested on: nuclear factor-kappa B (p65) [NFkB (p65)] in HeLa cells; conditions: for Fold down regulation with respect to control cells, NFkB (p65): HeLa cells, after 3 hours
Protocol: as §1

[5] = tested on: protein c-jun N-terminal kinase (pJNK) in HeLa cells; conditions: for Fold activation with respect to control cells, pJNK: HeLa cells, after 3 hours
Protocol: as §1

[6] = tested on: ribosomal protein S6 (pS6) in HeLa cells; conditions: for Fold down regulation with respect to control cells, pS6: HeLa cells, after 3 hours
Protocol: as §1

[7] = tested on: tumor protein 53 (p53) in HeLa cells; conditions: for Fold activation with respect to control cells, P53: HeLa cells, after 3 hours
Protocol: as §1

For CC(C)CC1CCC(O)(C(C)(O)C(=O)NC2C(=O)N3NCCCC3C(=O)N(O)C(C)C(=O)NCC(=O)N3NCCCC3C(=O)N(O)C(C)C(=O)OC2C(C)C)OC1C (centres unmarked) [Formula (1a), N-(6,18-dihydroxy-22-isopropyl-7,19-dimethyl-5,8,11,17,20,24-hexaoxotetracosa hydrodipyridazino[6,1-f:6′,1′-o][1,4,7,10,13,16]oxapentaazacyclononadecin-23-yl)-2-hydroxy-2-(2-hydroxy-5-isobutyl-6-methyltetrahydro-2H-pyran-2-yl)propanamide], the “Fold activation with respect to control cells, Cleaved Caspase 3” value (“Fold activation … Cleaved Caspase 3” below) ([1]; 0.0003 μM) was −0.04 fold, the “Fold activation … Cleaved Caspase 3” value ([1]; 0.003 μM) was 0.53 fold and the “Fold activation … Cleaved Caspase 3” value ([1]; 0.01 μM) was 1.62 fold. For the same compound, the “effect on cleaved caspase 3 (in words)” value ([1]; cancer cells, conclusion) was “prominent upregulation”, the “Fold activation with respect to control cells, Cleaved Caspase 9” value (“Fold activation … Cleaved Caspase 9” for short) ([2]; 0.0003 μM) was −0.04 fold and the “Fold activation … Cleaved Caspase 9” value ([2]; 0.003 μM) was 0.53 fold. The “Fold activation … Cleaved Caspase 9” value ([2]; 0.01 μM) was 2.22 fold, the “effect on cleaved caspase 9 expression (in words)” value ([2]; cancer cells, conclusion) was “up-regulates” and the “Fold activation with respect to control cells, Cleaved PARP” value (from here on “Fold activation … Cleaved PARP”) ([3]; 0.0003 μM) was 0.52 fold. For the same compound, the “Fold activation … Cleaved PARP” value ([3]; 0.003 μM) was 1.09 fold, the “Fold activation … Cleaved PARP” value ([3]; 0.01 μM) was 1.51 fold and the “effect on cleaved PARP (in words)” value ([3]; cancer cells, conclusion) was “prominent upregulation”. For the same compound, the “Fold down regulation with respect to control cells, Cyclin D” value (“Fold down regulation … Cyclin D” for short) (cyclin D in HeLa cells; 0.0003 μM) was −0.57 fold, the “Fold down regulation … Cyclin D” value (cyclin D in HeLa cells; 0.003 μM) was −0.89 fold and the “Fold down regulation … Cyclin D” value (cyclin D in HeLa cells; 0.01 μM) was −3.81 fold. The “effect on cyclin D protein expression (in words)” value (cyclin D in HeLa cells; cancer cells, conclusion) was “significantly downregulates”, the “Fold down regulation with respect to control cells, NFkB (p65)” value (from here on “Fold down regulation … (p65)”) ([4]; 0.0003 μM) was −0.46 fold and the “Fold down regulation … (p65)” value ([4]; 0.003 μM) was −0.80 fold. The “Fold down regulation … (p65)” value ([4]; 0.01 μM) was −1.86 fold, the “effect on NFkB (p65) protein expression (in words)” value ([4]; cancer cells, conclusion) was “significantly downregulates” and the “Fold activation with respect to control cells, pJNK” value (“Fold activation … pJNK” for short) ([5]; 0.0003 μM) was 0.55 fold. The “Fold activation … pJNK” value ([5]; 0.003 μM) was 0.85 fold, the “Fold activation … pJNK” value ([5]; 0.01 μM) was 2.42 fold and the “effect on pJNK expression (in words)” value ([5]; cancer cells, conclusion) was “up-regulates”. The “Fold down regulation with respect to control cells, pS6” value (“Fold down regulation … pS6” for short) ([6]; 0.0003 μM) was −0.42 fold, the “Fold down regulation … pS6” value ([6]; 0.003 μM) was −0.56 fold and the “Fold down regulation … pS6” value ([6]; 0.01 μM) was −1.97 fold. For the same compound, the “effect on pS6 protein expression (in words)” value ([6]; cancer cells, conclusion) was “significantly downregulates”, the “Fold activation with respect to control cells, P53” value (“Fold activation … P53” for short) ([7]; 0.0003 μM) was −0.15 fold and the “Fold activation … P53” value ([7]; 0.003 μM) was 0.55 fold. The “Fold activation … P53” value ([7]; 0.01 μM) was 2.27 fold and the “effect on p53 expression (in words)” value ([7]; cancer cells, conclusion) was “up-regulates”.
